# Assay: recombinant UMI read abundance after kanamycin selection (control-corrected) (log10(CPM+1)); higher = more efficient recombination; extreme values may be limits of the assay; sequences stand for … in AGTGCAGAGAAAATCGGCCAGTTTTCTCTGCCTGCAGTCCGCATGCCGTGGGACCCCTTGGGTTCTAACCTGTTGCCTAGATTTATGCAGCGGACTGCCTTTCTCCCAAAGTGATAAACCGG…AGGTTGGTTTCACT; site = the 11-nt donor
# Method in brief: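 The measure is log10(CPM+1) for recombinant UMIs. These were PCR-amplified across the donor–target junction and sequenced after Escherichia coli carrying a donor and donor-binding-loop pair library and a target plasmid with T7-inducible IS621 bridge recombinase was plated on IPTG (0.07 mM) plus kanamycin or unselected. CPM were averaged over two replicates and scaled by control-derived factors.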
# 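Also: IS621 bridge recombinase in Escherichia coli cells against a fixed T5 target plasmid.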
row,Sequence,recombinant UMI read abundance (log10)
1,GACACGCCATGGACCGGTTTTCCCGGTAATCCGTATTTGTA (site GGCACGCCTTA),0.00761
2,GACACGCCATGGACCGGTTTTCCCGGTAATCCGTATTTGTA (site GTCACGCCTTA),0.0098
3,GACACGCCATGGACCGGTTTTCCCGGTAATCCGTATTTGTG (site GACACGCCTCA),0.149
4,GACAGACCATGGACCGGTTTTCCCGGTAATCCGTATTTGGT (site GACAAACCTAC),0
5,GACAGACCATGGACCGGTTTTCCCGGTAATCCGTATTTGGT (site GACACACCTAC),0.00419
6,GACAGACCATGGACCGGTTTTCCCGGTAATCCGTATTTGGT (site GACAGACCTAC),0.0145
7,GACAGACCATGGACCGGTTTTCCCGGTAATCCGTATTTGGT (site GACATACCTAC),0
8,GACATACCATGGACCGGTTTTCCCGGTAATCCGTATTTGGC (site GACATACCTGC),0
9,GACCCATCATGGACCGGTTTTCCCGGTAATCCGTATTTGGA (site GACCCATCTTC),1.26
10,GACCGGGCATGGACCGGTTTTCCCGGTAATCCGTATTTGAT (site GACCGGGCTAT),0.662
11,GACCGTCCATGGACCGGTTTTCCCGGTAATCCGTATTTGAT (site AACCGTCCTAT),0
12,GACCGTCCATGGACCGGTTTTCCCGGTAATCCGTATTTGAT (site CACCGTCCTAT),0.00334
13,GACCGTCCATGGACCGGTTTTCCCGGTAATCCGTATTTGAT (site GACCGTCCTAT),0.0192
14,GACCGTCCATGGACCGGTTTTCCCGGTAATCCGTATTTGAT (site TACCGTCCTAT),0.0517
15,GACCTCACATGGACCGGTTTTCCCGGTAATCCGTATTTGTA (site GACCTCACTTA),0.0239
16,GACGAAACATGGACCGGTTTTCCCGGTAATCCGTATTTGTA (site GACGAAACTTA),2.54
17,GACGAAGCATGGACCGGTTTTCCCGGTAATCCGTATTTGCT (site GACGAAGCTAG),2.11
18,GACGCCACATGGACCGGTTTTCCCGGTAATCCGTATTTGAA (site GACGCCACTTT),0.827
19,GACGCCGCATGGACCGGTTTTCCCGGTAATCCGTATTTGAG (site GACGCCGCTCT),0.349
20,GACGCTACATGGACCGGTTTTCCCGGTAATCCGTATTTGCA (site GACGCTACTTG),1.36
21,GACTATCCATGGACCGGTTTTCCCGGTAATCCGTATTTGCT (site GAATATCCTAG),0.00525
22,GACTATCCATGGACCGGTTTTCCCGGTAATCCGTATTTGCT (site GACTATCCTAG),1.29
23,GACTATCCATGGACCGGTTTTCCCGGTAATCCGTATTTGCT (site GAGTATCCTAG),0
24,GACTATCCATGGACCGGTTTTCCCGGTAATCCGTATTTGCT (site GATTATCCTAG),0
25,GACTCACCATGGACCGGTTTTCCCGGTAATCCGTATTTGAC (site GACTCACCTGT),0

row,Sequence,recombinant UMI read abundance (log10)
1,GACTCCCCATGGACCGGTTTTCCCGGTAATCCGTATTTGCA (site GACTCCCCTTG),1.3
2,GACTCCTCATGGACCGGTTTTCCCGGTAATCCGTATTTGCC (site AACTCCTCTGG),1.71
3,GACTCCTCATGGACCGGTTTTCCCGGTAATCCGTATTTGCC (site CACTCCTCTGG),1.86
4,GACTCCTCATGGACCGGTTTTCCCGGTAATCCGTATTTGCC (site GACTCCTCTGG),2.02
5,GACTCCTCATGGACCGGTTTTCCCGGTAATCCGTATTTGCC (site TACTCCTCTGG),2.07
6,GACTTAGCATGGACCGGTTTTCCCGGTAATCCGTATTTGTG (site GACTTAGCTCA),0.251
7,GACTTGACATGGACCGGTTTTCCCGGTAATCCGTATTTGCT (site AACTTGACTAG),1.3
8,GACTTGACATGGACCGGTTTTCCCGGTAATCCGTATTTGCT (site CACTTGACTAG),0.596
9,GACTTGACATGGACCGGTTTTCCCGGTAATCCGTATTTGCT (site GACTTGACTAG),0.984
10,GACTTGACATGGACCGGTTTTCCCGGTAATCCGTATTTGCT (site TACTTGACTAG),0.923
11,GACTTGGCATGGACCGGTTTTCCCGGTAATCCGTATTTGGA (site AACTTGGCTTC),0.227
12,GACTTGGCATGGACCGGTTTTCCCGGTAATCCGTATTTGGA (site CACTTGGCTTC),0.579
13,GACTTGGCATGGACCGGTTTTCCCGGTAATCCGTATTTGGA (site GACTTGGCTTC),0.654
14,GACTTGGCATGGACCGGTTTTCCCGGTAATCCGTATTTGGA (site TACTTGGCTTC),0.28
15,GACTTTCCATGGACCGGTTTTCCCGGTAATCCGTATTTGAC (site GACTTTCCTGT),0.0655
16,GAGAATGCATGGACCGGTTTTCCCGGTAATCCGTATTTGCT (site GAGAATGCTAG),2.16
17,GAGACGCCATGGACCGGTTTTCCCGGTAATCCGTATTTGAT (site GAGACGCCTAT),0.566
18,GAGATTCCATGGACCGGTTTTCCCGGTAATCCGTATTTGGG (site GAGATTCCTCC),0.0141
19,GAGCACACATGGACCGGTTTTCCCGGTAATCCGTATTTGAT (site GAGCACACTAT),1.9
20,GAGCACACATGGACCGGTTTTCCCGGTAATCCGTATTTGAT (site GAGCCCACTAT),0.0144
21,GAGCACACATGGACCGGTTTTCCCGGTAATCCGTATTTGAT (site GAGCGCACTAT),0.00425
22,GAGCACACATGGACCGGTTTTCCCGGTAATCCGTATTTGAT (site GAGCTCACTAT),0
23,GAGCCGGCATGGACCGGTTTTCCCGGTAATCCGTATTTGAA (site GAGCCGGCTTT),0.241
24,GAGCCGTCATGGACCGGTTTTCCCGGTAATCCGTATTTGAT (site GAGCCGTCTAT),1.32
25,GAGCCTCCATGGACCGGTTTTCCCGGTAATCCGTATTTGAG (site GAGCCTCCTCT),0.0215

row,Sequence,recombinant UMI read abundance (log10)
1,GAGCGCTCATGGACCGGTTTTCCCGGTAATCCGTATTTGCG (site GAGCGCTCTCG),2.26
2,GAGCGGACATGGACCGGTTTTCCCGGTAATCCGTATTTGGC (site GAGCGGACTGC),2.85
3,GAGCTACCATGGACCGGTTTTCCCGGTAATCCGTATTTGGC (site GAGCTACCTGC),0
4,GAGCTAGCATGGACCGGTTTTCCCGGTAATCCGTATTTGAA (site AAGCTAGCTTT),1.5
5,GAGCTAGCATGGACCGGTTTTCCCGGTAATCCGTATTTGAA (site CAGCTAGCTTT),0.896
6,GAGCTAGCATGGACCGGTTTTCCCGGTAATCCGTATTTGAA (site GAGCTAGCTTT),2.14
7,GAGCTAGCATGGACCGGTTTTCCCGGTAATCCGTATTTGAA (site TAGCTAGCTTT),1.63
8,GAGCTCACATGGACCGGTTTTCCCGGTAATCCGTATTTGAA (site GAGCTCACTAT),0.839
9,GAGCTCACATGGACCGGTTTTCCCGGTAATCCGTATTTGAA (site GAGCTCACTCT),0.0248
10,GAGCTCACATGGACCGGTTTTCCCGGTAATCCGTATTTGAA (site GAGCTCACTGT),0.716
11,GAGCTCACATGGACCGGTTTTCCCGGTAATCCGTATTTGAA (site GAGCTCACTTT),1.43
12,GAGCTCACATGGACCGGTTTTCCCGGTAATCCGTATTTGAG (site GAGCTCACTAT),0.277
13,GAGCTCACATGGACCGGTTTTCCCGGTAATCCGTATTTGAG (site GAGCTCACTCT),0.665
14,GAGCTCACATGGACCGGTTTTCCCGGTAATCCGTATTTGAG (site GAGCTCACTGT),0
15,GAGCTCACATGGACCGGTTTTCCCGGTAATCCGTATTTGAG (site GAGCTCACTTT),0.00749
16,GAGCTCCCATGGACCGGTTTTCCCGGTAATCCGTATTTGAT (site GAGCTCACTAT),0.00938
17,GAGCTCCCATGGACCGGTTTTCCCGGTAATCCGTATTTGAT (site GAGCTCCCTAT),1.07
18,GAGCTCCCATGGACCGGTTTTCCCGGTAATCCGTATTTGAT (site GAGCTCGCTAT),0
19,GAGCTCCCATGGACCGGTTTTCCCGGTAATCCGTATTTGAT (site GAGCTCTCTAT),2
20,GAGCTCTCATGGACCGGTTTTCCCGGTAATCCGTATTTGAT (site GAGCTCACTAT),0.0184
21,GAGCTCTCATGGACCGGTTTTCCCGGTAATCCGTATTTGAT (site GAGCTCCCTAT),1.06
22,GAGCTCTCATGGACCGGTTTTCCCGGTAATCCGTATTTGAT (site GAGCTCGCTAT),0.0051
23,GAGCTCTCATGGACCGGTTTTCCCGGTAATCCGTATTTGAT (site GAGCTCTCTAT),2.58
24,GAGCTTCCATGGACCGGTTTTCCCGGTAATCCGTATTTGTC (site GAGCTTCCTGA),0.576
25,GAGGAATCATGGACCGGTTTTCCCGGTAATCCGTATTTGCG (site AAGGAATCTCG),2.23
